Measured values reported in PMC12257073 (Cancer Research Communications, 2025).

Assay: Adverse events (treatment-related and all-cause) and dose-limiting toxicities, NCI CTCAE version 4.0
Conditions: all-cause adverse events
[1] = Group 1, Skin and subcutaneous tissue disorders

Method: The phase 1b portion of the study used a standard 3 + 3 dose-escalation design with a starting dose level 1 (DL1) of 37 mg oral daily TP-0903 (Supplementary Table S2) based on experience with 50 mg oral daily as a single agent in patients with solid tumors ([25]). Dose-limiting toxicities (DLT) were evaluated to establish the dose brought forward for an expansion cohort (phase 2). Seven patients were enrolled in the phase 1b study, which was completed in January 2021 with the decision to move forward with an expansion cohort of 37 mg oral daily. Across the phase 1b and phase 2 studies, 15 patients were enrolled and started on 37 mg TP-0903 oral daily on days 1 to 21 (group 1). […] One additional patient was enrolled at this time but was inadvertently started on 25 mg TP-0903 oral daily on days 1 to 21. […] In May 2021, an amendment was approved to allow enrollment of a new group 2 at 25mg oral daily on days 1 to 21 of TP-0903 (DL-1) in stage 2 of the phase 2 study.
Clinical response was assessed according to the modified 2017 European LeukemiaNet AML criteria ([26]). The primary endpoint was achievement of CR within six cycles of therapy. Secondary endpoints included toxicity, duration of response, OS, and the proportion of eligible patients who effectively transitioned to allogeneic stem cell transplantation. Exploratory endpoints included pharmacokinetics (PK), correlative genetic, and biochemical data; correlations between morphologic remission, spectral flow cytometry, and mutational remission; and duration of remission or survival. […] Adverse events (AE) were graded according to the NCI Common Terminology Criteria for Adverse Events version 4.0 ([27]).

CN1CCN(Cc2ccc(Nc3ncc(Cl)c(Nc4ccccc4S(=O)(=O)N(C)C)n3)cc2)CC1.O=C(O)C(O)C(O)C(=O)O.O=C(O)C(O)C(O)C(=O)O [TP-0903, 2-(5-chloro-2-(4-((4-methylpiperazin-1-yl)methyl)phenylamino)pyrimidin-4-yl)amino-N,N-dimethylbenzene-1-sulfonamide di-tartrate salt]
Atrial fibrillation with RVR, All (Group 1, Missing Categories): 0 (0)
Atrial fibrillation with RVR, Grade 1 2 (Group 1, Missing Categories): 0 (0)
Atrial fibrillation with RVR, Grade 3+ (Group 1, Missing Categories): 0 (0)
COPD exacerbation, All (Group 1, Missing Categories): 1 (6.7)
COPD exacerbation, Grade 1 2 (Group 1, Missing Categories): 1 (6.7)
COPD exacerbation, Grade 3+ (Group 1, Missing Categories): 0 (0)
Chest pain (non-cardiac), All (Group 1, Missing Categories): 0 (0)
Chest pain (non-cardiac), Grade 1 2 (Group 1, Missing Categories): 0 (0)
Chest pain (non-cardiac), Grade 3+ (Group 1, Missing Categories): 0 (0)
Death, NOS, All (Group 1, Missing Categories): 1 (6.7)
Death, NOS, Grade 1 2 (Group 1, Missing Categories): 0 (0)
Death, NOS, Grade 3+ (Group 1, Missing Categories): 1 (6.7)
Diarrhea (intermittent), All (Group 1, Missing Categories): 0 (0)
Diarrhea (intermittent), Grade 1 2 (Group 1, Missing Categories): 0 (0)
Diarrhea (intermittent), Grade 3+ (Group 1, Missing Categories): 0 (0)
Hand-Foot Syndrome, All (Group 1, Missing Categories): 1 (6.7)
Hand-Foot Syndrome, Grade 1 2 (Group 1, Missing Categories): 1 (6.7)
Hand-Foot Syndrome, Grade 3+ (Group 1, Missing Categories): 0 (0)
Hip Pain, All (Group 1, Missing Categories): 1 (6.7)
Hip Pain, Grade 1 2 (Group 1, Missing Categories): 1 (6.7)
Hip Pain, Grade 3+ (Group 1, Missing Categories): 0 (0)
Hypokalemia (intermittent), All (Group 1, Missing Categories): 0 (0)
Hypokalemia (intermittent), Grade 1 2 (Group 1, Missing Categories): 0 (0)
Hypokalemia (intermittent), Grade 3+ (Group 1, Missing Categories): 0 (0)
Hypotension (intermittent), All (Group 1, Missing Categories): 0 (0)
Hypotension (intermittent), Grade 1 2 (Group 1, Missing Categories): 0 (0)
Hypotension (intermittent), Grade 3+ (Group 1, Missing Categories): 0 (0)
INR - Increased, All (Group 1, Missing Categories): 1 (6.7)
INR - Increased, Grade 1 2 (Group 1, Missing Categories): 1 (6.7)
INR - Increased, Grade 3+ (Group 1, Missing Categories): 0 (0)
Inflammation (bilateral knee), All (Group 1, Missing Categories): 0 (0)
Inflammation (bilateral knee), Grade 1 2 (Group 1, Missing Categories): 0 (0)
Inflammation (bilateral knee), Grade 3+ (Group 1, Missing Categories): 0 (0)
Itching (intermittent), All (Group 1, Missing Categories): 0 (0)
Itching (intermittent), Grade 1 2 (Group 1, Missing Categories): 0 (0)
Itching (intermittent), Grade 3+ (Group 1, Missing Categories): 0 (0)
Microvascular ischemic disease, All (Group 1, Missing Categories): 0 (0)
Microvascular ischemic disease, Grade 1 2 (Group 1, Missing Categories): 0 (0)
Microvascular ischemic disease, Grade 3+ (Group 1, Missing Categories): 0 (0)
Pain (leg), All (Group 1, Missing Categories): 0 (0)
Pain (leg), Grade 1 2 (Group 1, Missing Categories): 0 (0)
Pain (leg), Grade 3+ (Group 1, Missing Categories): 0 (0)
Retinal Detachment, All (Group 1, Missing Categories): 1 (6.7)
Retinal Detachment, Grade 1 2 (Group 1, Missing Categories): 1 (6.7)
Retinal Detachment, Grade 3+ (Group 1, Missing Categories): 0 (0)
Steroid-induced hyperglycemia, All (Group 1, Missing Categories): 0 (0)
Steroid-induced hyperglycemia, Grade 1 2 (Group 1, Missing Categories): 0 (0)
Steroid-induced hyperglycemia, Grade 3+ (Group 1, Missing Categories): 0 (0)
Symptomatic anemia, All (Group 1, Missing Categories): 0 (0)
Symptomatic anemia, Grade 1 2 (Group 1, Missing Categories): 0 (0)
Symptomatic anemia, Grade 3+ (Group 1, Missing Categories): 0 (0)
lung fullness, All (Group 1, Missing Categories): 1 (6.7)
lung fullness, Grade 1 2 (Group 1, Missing Categories): 1 (6.7)
lung fullness, Grade 3+ (Group 1, Missing Categories): 0 (0)
neuropathy (BLE), All (Group 1, Missing Categories): 0 (0)
neuropathy (BLE), Grade 1 2 (Group 1, Missing Categories): 0 (0)
neuropathy (BLE), Grade 3+ (Group 1, Missing Categories): 0 (0)
pericarditis (intermittent), All (Group 1, Missing Categories): 0 (0)
pericarditis (intermittent), Grade 1 2 (Group 1, Missing Categories): 0 (0)
pericarditis (intermittent), Grade 3+ (Group 1, Missing Categories): 0 (0)
Dry skin, All [1]: 1 (6.7)
Dry skin, Grade 1 2 [1]: 1 (6.7)
Dry skin, Grade 3+ [1]: 0 (0)
Ecchymosis, All [1]: 1 (6.7)
Ecchymosis, Grade 1 2 [1]: 1 (6.7)
Ecchymosis, Grade 3+ [1]: 0 (0)
Erythema nodosum, All [1]: 0 (0)
Erythema nodosum, Grade 1 2 [1]: 0 (0)
Erythema nodosum, Grade 3+ [1]: 0 (0)
Erythema, All [1]: 1 (6.7)
Erythema, Grade 1 2 [1]: 1 (6.7)
Erythema, Grade 3+ [1]: 0 (0)
Hyperhidrosis, All [1]: 0 (0)
Hyperhidrosis, Grade 1 2 [1]: 0 (0)
Hyperhidrosis, Grade 3+ [1]: 0 (0)
Nail discolouration, All [1]: 1 (6.7)
Nail discolouration, Grade 1 2 [1]: 1 (6.7)
Nail discolouration, Grade 3+ [1]: 0 (0)
Petechiae, All [1]: 0 (0)
Petechiae, Grade 1 2 [1]: 0 (0)
Petechiae, Grade 3+ [1]: 0 (0)
Photosensitivity reaction, All [1]: 1 (6.7)
Photosensitivity reaction, Grade 1 2 [1]: 1 (6.7)
Photosensitivity reaction, Grade 3+ [1]: 0 (0)
Pruritus, All [1]: 1 (6.7)
Pruritus, Grade 1 2 [1]: 1 (6.7)
Pruritus, Grade 3+ [1]: 0 (0)
Rash papular, All [1]: 0 (0)
Rash papular, Grade 1 2 [1]: 0 (0)
Rash papular, Grade 3+ [1]: 0 (0)
Rash, All [1]: 1 (6.7)
Rash, Grade 1 2 [1]: 1 (6.7)
Rash, Grade 3+ [1]: 0 (0)
Scab, All [1]: 0 (0)
Scab, Grade 1 2 [1]: 0 (0)
Scab, Grade 3+ [1]: 0 (0)
Skin disorder, All [1]: 1 (6.7)
Skin disorder, Grade 1 2 [1]: 1 (6.7)
Skin disorder, Grade 3+ [1]: 0 (0)
Skin lesion, All [1]: 0 (0)
Skin lesion, Grade 1 2 [1]: 0 (0)
Skin lesion, Grade 3+ [1]: 0 (0)
Swelling face, All [1]: 0 (0)
Swelling face, Grade 1 2 [1]: 0 (0)
Swelling face, Grade 3+ [1]: 0 (0)
Hypertension, All (Group 1, Vascular disorders): 1 (6.7)
Hypertension, Grade 1 2 (Group 1, Vascular disorders): 0 (0)
Hypertension, Grade 3+ (Group 1, Vascular disorders): 1 (6.7)
Hypotension, All (Group 1, Vascular disorders): 3 (20)
Hypotension, Grade 1 2 (Group 1, Vascular disorders): 2 (13.3)
Hypotension, Grade 3+ (Group 1, Vascular disorders): 1 (6.7)
Lymphoedema, All (Group 1, Vascular disorders): 0 (0)
Lymphoedema, Grade 1 2 (Group 1, Vascular disorders): 0 (0)
Lymphoedema, Grade 3+ (Group 1, Vascular disorders): 0 (0)
Peripheral venous disease, All (Group 1, Vascular disorders): 0 (0)
Peripheral venous disease, Grade 1 2 (Group 1, Vascular disorders): 0 (0)
Peripheral venous disease, Grade 3+ (Group 1, Vascular disorders): 0 (0)
Atrial fibrillation with RVR, All (Group 2, Missing Categories): 1 (8.3)
Atrial fibrillation with RVR, Grade 1 2 (Group 2, Missing Categories): 1 (8.3)
Atrial fibrillation with RVR, Grade 3+ (Group 2, Missing Categories): 0 (0)
COPD exacerbation, All (Group 2, Missing Categories): 0 (0)
COPD exacerbation, Grade 1 2 (Group 2, Missing Categories): 0 (0)
COPD exacerbation, Grade 3+ (Group 2, Missing Categories): 0 (0)
Chest pain (non-cardiac), All (Group 2, Missing Categories): 1 (8.3)
Chest pain (non-cardiac), Grade 1 2 (Group 2, Missing Categories): 1 (8.3)
Chest pain (non-cardiac), Grade 3+ (Group 2, Missing Categories): 0 (0)
Death, NOS, All (Group 2, Missing Categories): 0 (0)
Death, NOS, Grade 1 2 (Group 2, Missing Categories): 0 (0)
Death, NOS, Grade 3+ (Group 2, Missing Categories): 0 (0)
Diarrhea (intermittent), All (Group 2, Missing Categories): 1 (8.3)
Diarrhea (intermittent), Grade 1 2 (Group 2, Missing Categories): 1 (8.3)
Diarrhea (intermittent), Grade 3+ (Group 2, Missing Categories): 0 (0)
Hand-Foot Syndrome, All (Group 2, Missing Categories): 0 (0)
Hand-Foot Syndrome, Grade 1 2 (Group 2, Missing Categories): 0 (0)
Hand-Foot Syndrome, Grade 3+ (Group 2, Missing Categories): 0 (0)
Hip Pain, All (Group 2, Missing Categories): 0 (0)
Hip Pain, Grade 1 2 (Group 2, Missing Categories): 0 (0)
Hip Pain, Grade 3+ (Group 2, Missing Categories): 0 (0)
Hypokalemia (intermittent), All (Group 2, Missing Categories): 1 (8.3)
Hypokalemia (intermittent), Grade 1 2 (Group 2, Missing Categories): 1 (8.3)
Hypokalemia (intermittent), Grade 3+ (Group 2, Missing Categories): 0 (0)
